Earlier results on one compound are cited in patent US20220290237A1, “METHOD FOR PREDICTING THE RESPONSE OF ANTIPSYCHOTIC DRUGS” (INSERM (INSTITUT NATIONAL DE LA SANTÉ ET DE LA RECHERCHE …, priority 2019, published 2022).

For this data set the following is noted: first episode psychosis patients; cited from earlier work.

SMILES strings stand for the structures.

As to `Cc1cc2c(s1)Nc1ccccc1N=C2N1CCN(C)CC1` [olanzapine, 2-méthyl-4-(4-méthyl-1-pipérazinyl)-10H-thiéno[2,3-b][1,5]benzodiazepine], the “outcome after change from amisulpride to olanzapine” value is “did not improve outcome for most of the patient”.
